Measured values taken from US20250368687A1, “SHORT SYNTHETIC PEPTIDES AND USES THEREOF IN THE TREATMENT OF ENTEROVIRUS INFECTION” (CITY UNIVERSITY OF HONG KONG, priority 2024, published 2025).

Assays:
p38 MAPK = details: background statement; cited from earlier work
EV-A71 [1] = test: EV-A71-induced cytopathic effect (CPE) on RD cells; type: cell-based; details: EV-A71 MOI 1 for 12 hours
Procedure: FIGS. 10A-10K. Peptide S78 inhibited EV-A71 replication and propagation. (FIG. 10A) RD cells were pre-treated with peptides S78 or for 2 hours and infected with EV-A71 at the MOI of 10 for 6 hours. Cell lysates were collected for western blot assay. Hsp27 phosphorylation on Ser 15, 78, 82 were detected by specific antibodies. β-Actin were detected as internal control. (FIG. 10B) Densitometric analysis of FIG. 9A. (FIG. 10C) HEK 293T cells were pre-treated with peptides S78 or S78A at the concentration of 25 μM for 2 hours and then co-transfected with Hsp27-WT plasmid (800 ng), pIRES reporter plasmid (200 ng) and 2A^pro-expressing plasmid or 2AC110A-expressing plasmid (200 ng) for 24 h, then the luciferase activity was measured. (FIG. 10D-10E) RD cells were treated with peptides S78 or S78A and then infected with EV-A71. EV-A71 VP1 were detected. (FIG. 10F) RD cells were treated with peptides and then infected with EV-A71 at the MOI of 1 for 12 hours. The EV-A71-induced CPE was captured. (FIG. 10G-10H) Intracellular viral RNA was extracted and quantified by qPCR. (FIG. 10I) Densitometric analysis FIG. 9D-E. (FIG. 10J) RD cells were treated with peptides S78 or and then infected with EV-A71 at the MOI of 1 for 12 hours. Extracellular viral RNA was extracted and quantified by qPCR. (FIG. 10K) Viral titration was calculated by TCID50. […] Data are expressed as mean ±SD. […]

EV-A71 [2] = test: Virus titration (TCID50); type: cell-based; details: TCID50, RD cells (FIG. 10K)
Procedure: FIGS. 10A-10K. Peptide S78 inhibited EV-A71 replication and propagation. (FIG. 10A) RD cells were pre-treated with peptides S78 or for 2 hours and infected with EV-A71 at the MOI of 10 for 6 hours. Cell lysates were collected for western blot assay. Hsp27 phosphorylation on Ser 15, 78, 82 were detected by specific antibodies. β-Actin were detected as internal control. (FIG. 10B) Densitometric analysis of FIG. 9A. (FIG. 10C) HEK 293T cells were pre-treated with peptides S78 or S78A at the concentration of 25 μM for 2 hours and then co-transfected with Hsp27-WT plasmid (800 ng), pIRES reporter plasmid (200 ng) and 2A^pro-expressing plasmid or 2AC110A-expressing plasmid (200 ng) for 24 h, then the luciferase activity was measured. (FIG. 10D-10E) RD cells were treated with peptides S78 or S78A and then infected with EV-A71. EV-A71 VP1 were detected. (FIG. 10F) RD cells were treated with peptides and then infected with EV-A71 at the MOI of 1 for 12 hours. The EV-A71-induced CPE was captured. (FIG. 10G-10H) Intracellular viral RNA was extracted and quantified by qPCR. (FIG. 10I) Densitometric analysis FIG. 9D-E. (FIG. 10J) RD cells were treated with peptides S78 or and then infected with EV-A71 at the MOI of 1 for 12 hours. Extracellular viral RNA was extracted and quantified by qPCR. (FIG. 10K) Viral titration was calculated by TCID50. […] Data are expressed as mean ±SD.
FIGS. 11A-11G Inhibition of EV-A71 Protein Translation and Viral Reproduction by peptide S82A. (FIG. 11A) HEK 293T cells were pre-treated with peptides NC, S78, S78A, S82A, or S78-3A at the concentration of 25 μM for 2 hours and then co-transfected with Hsp27-WT plasmid (800 ng), pIRES reporter plasmid (200 ng) and 2A^pro-expressing plasmid for 24 h, then the luciferase activity was measured. […] Intracellular viral RNA was extracted and quantified by qPCR. […] EV-A71 VP1 were detected. β-Actin was detected as an internal control. (FIG. 11F) Densitometric analysis of the EV-A71 VP1 level in FIG. S7C-E was quantified and normalized with β-Actin using ImageJ. […] Viral titration was calculated. […] Data are expressed as mean ±SD. […]

RD cells = test: CCK-8 assay; type: cell-based; details: data not shown
Procedure: RD cells were seeded in 96-well cell plates (1×10^4/well) and placed in the 5% CO2 incubator for 1 day. Then the cells were treated with peptides for 2 days. 90 μl medium and 10 μl of CCK-8 (BioSharp, BS350B) was added to each well of the 96-well plate, which were incubated at 37° C. for 1 h. A microplate reader (BioTek, Synergy H1) was used to measure the OD value of each well at 450 nm.

Molecule	secretion of inflammatory factors (such as IL-6, IL-10, and TNF-α) (p38 MAPK)	viral replication (p38 MAPK)	protection from EV-A71-induced CPE (EV-A71 [1])	decrease of viral titer (EV-A71 [2])	CC50 (in words) (RD cells)
C[S+]([O-])c1ccc(-c2nc(-c3ccncc3)c(-c3ccc(F)cc3)[nH]2)cc1 (stereo not shown) [SB203580, reference compound]	inhibited	reduced	–	–	–
Ac-RKKRRQRRRAYSRALARQLSS-NH2 [S78A]	–	–	mild protection	50 folds	–
Ac-RKKRRQRRRAYSRALSRQLSS-NH2 [S78]	–	–	dramatically protected	450 folds	–
Ac-RKKRRQRRRYSREANQPKPSPKRESGEE-NH2 [NC, reference compound]	–	–	–	–	high
